Laboratory results reported in US20120214847A1, “2-[1-PHENYL-5-HYDROXY-4a-SUBSTITUTED-HEXAHYDROCYCLOPENTA[F]INDAZOL-5-YL]ETHYL PHENYL DERIVATIVES AS GLUCOCORTICOID RECEPTOR LIGANDS” (Merck Sharp & Dohme Corp., priority 2009, published 2012).

Biological target: T1, human GR (Homo sapiens, UniProt P04150)
T1 construct: naturally expresses the human GR; endogenous in cells
T1 sequence (P04150 1-777): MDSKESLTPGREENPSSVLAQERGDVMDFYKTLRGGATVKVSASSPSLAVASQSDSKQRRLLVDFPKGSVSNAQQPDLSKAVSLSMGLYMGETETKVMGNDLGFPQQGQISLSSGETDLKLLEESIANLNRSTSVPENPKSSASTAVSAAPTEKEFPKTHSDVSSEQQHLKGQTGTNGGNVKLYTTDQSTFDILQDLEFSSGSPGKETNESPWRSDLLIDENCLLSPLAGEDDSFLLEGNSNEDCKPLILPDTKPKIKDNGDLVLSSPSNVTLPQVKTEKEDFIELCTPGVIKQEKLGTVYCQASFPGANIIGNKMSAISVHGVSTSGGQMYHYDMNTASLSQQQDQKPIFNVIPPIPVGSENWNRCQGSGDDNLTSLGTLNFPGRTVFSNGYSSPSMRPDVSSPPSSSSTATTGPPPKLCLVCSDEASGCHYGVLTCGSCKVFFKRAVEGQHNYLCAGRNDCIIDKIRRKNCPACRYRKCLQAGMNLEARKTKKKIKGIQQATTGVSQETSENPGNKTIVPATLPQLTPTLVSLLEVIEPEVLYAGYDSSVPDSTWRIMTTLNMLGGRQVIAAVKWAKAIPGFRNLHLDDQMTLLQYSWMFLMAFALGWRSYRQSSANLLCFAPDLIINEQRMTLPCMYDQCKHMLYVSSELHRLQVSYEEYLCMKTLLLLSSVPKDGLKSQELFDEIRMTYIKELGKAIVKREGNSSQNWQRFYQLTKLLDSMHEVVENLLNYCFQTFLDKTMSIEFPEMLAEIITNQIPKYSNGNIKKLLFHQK
Experiment: Transrepression assay (GITAR), TNFα-β-lactamase reporter in U937 cells
Type: cell-based
Conditions: for EC50: IP = inflection point; for Emax: U-937, U937 cells
Source text: Transrepression Assay (GITAR)
This assay assesses the ability of test compounds to control transcription from the TNFα-β-lactamase reporter gene in U937 cells, a human myelomonocytic leukemia cell line that naturally expresses the human GR. The assay measures compound dependent-repression of the TNFa promoter linked to a reporter gene.
The human U937 cells that had been stablely transfected with the TNF-a promoter driving ˜-lactamase are used for this assay. U937 cells contain an endogenous glucocorticoid receptor (GR). Cells are maintained in RPMI 1640 Growth medium (GibcoCat#11875-093) containing 25 mM HEPES, 10% FBS, 2 mM L-Glutamine, 1 mM Sodium pyruvate, 25 μg/ml Gentamicin (Gibed Cat#1571 0-064), 1:1000 2-Mercaptoethanol (Gibco Cat#21985-023) and 0.8 mg/ml G418 (Gibco Cat#10131-027). The density of the cells in the flask needs to be about 1×10^6-3×10^6/ml at the time of harvest. Usually, the cells are split to 1.2˜1.4×10^5/ml (1:10) 3 days prior to the assay. 50,000 cells/well are plated in 96 well black-walled plates the day of assay. Test compounds are added 10 J.lL/well, and cells are incubated at 37° C. for 30˜45 min. For assaying compounds, first dilute 1:10 in DMSO to make 1 mM, then further dilute 1:100 in medium to make 10× stock prior to adding to the cells. Add 50 ng/ml PMA (Sigma, cat#P8139) 10 μL/well to a final concentration 5 ng/ml, and 1 μg/ml LPS (Sigma, cat#L4130) 10 μL/well to a final concentration 100 ng/ml. Incubate cells at 370 C overnight for −18 hr. PMA is stored frozen as […] in DMSO. Dilute 1:10 in DMSO for a working stock of 10 μg/ml and store at −20° C. For assaying, dilute the 10 μg/ml working stock 1:200 in medium to make a 10× solution (50 ng/ml). Store frozen LPS at 1 mg/ml in PBS, dilute 1:1000 in medium to make 10×μg/ml) for the assay. Add 6× loading buffer (CCF2-AM) 20 μL/well, and incubate at room temperature for 70-90 min. […] The activity repressed by 100 nM dexamethasone alone is set as 100% activity.

[1] = activity repressed by 100 nM dexamethasone alone set as 100%

| EC50 (U937 cells) [nM] | Emax [1] [%] | Transrepression U937 Cells GITAR Emax (%) (U937 cells, activity repressed by 100 nM dexamethasone alone set as 100%) | Compound |
| --- | --- | --- | --- |
| 95 | 87 |  | CC[C@]12Cc3cnn(-c4ccc(F)cc4)c3C=C1CC[C@@]2(O)CCc1cncc(F)c1 [Example 21, (4aS,5R)-4a-Ethyl-1-(4-fluorophenyl)-5-[2-(5-fluoropyridin-3-yl)ethyl]-1,4,4a,5,6,7-hexahydrocyclopenta[f]indazol-5-ol] |
| 148 | 89 |  | CC[C@]12Cc3cnn(-c4ccc(F)cc4)c3C=C1CC[C@@]2(O)CCc1ccccc1CCC(N)=O [Example 22, 3-(2-{2-[(4aS,5R)-4a-Ethyl-1-(4-fluorophenyl)-5-hydroxy-1,4,4a,5,6,7-hexahydrocyclopenta[f]indazol-5-yl]ethyl}phenyl)propanamide] |
| 22 | 77 |  | NC(=O)c1ccccc1CC[C@]1(O)CCC2=Cc3c(cnn3-c3ccc(F)cc3)C[C@@]21C1CC1 [Example 23, 2-{2-[(4aR,5R)-4a-Cyclopropyl-1-(4-fluorophenyl)-5-hydroxy-1,4,4a,5,6,7-hexahydrocyclopenta[f]indazol-5-yl]ethyl}benzamide] |
| 7 | 83 |  | NS(=O)(=O)c1ccccc1CC[C@]1(O)CCC2=Cc3c(cnn3-c3cccnc3)C[C@@]21C1CC1 [Example 24, 2-{2-[(4aR,5R)-4a-Cyclopropyl-5-hydroxy-1-(pyridin-3-yl)-1,4,4a,5,6,7-hexahydrocyclopenta[f]indazol-5-yl]ethyl}benzenesulfonamide] |
| 118 | 74 |  | CC[C@]12Cc3cnn(-c4ccc(F)cc4)c3C=C1CC[C@@]2(O)CCc1ccccc1C(O)C(N)=O (stereo partly drawn) [Example 25, 2-(2-{2-[(4aS,5R)-4a-Ethyl-1-(4-fluorophenyl)-5-hydroxy-1,4,4a,5,6,7-hexahydrocyclopenta[f]indazol-5-yl]ethyl}phenyl)-2-hydroxyacetamide] |
| 51 |  | 86 | CC[C@]12Cc3cnn(-c4ccc(F)cc4)c3C=C1CC[C@@]2(O)CCc1ccccc1C(O)C(N)=O (stereo partly drawn) [Example 26, 2-(2-{2-[(4aS,5R)-4a-Ethyl-1-(4-fluorophenyl)-5-hydroxy-1,4,4a,5,6,7-hexahydrocyclopenta[f]indazol-5-yl]ethyl}phenyl)-2-hydroxyacetamide] |
| 51 | 86 |  | N#Cc1ccccc1CC[C@]1(O)CCC2=Cc3c(cnn3-c3ccccc3)C[C@@]21C1CC1 [Example 27, 2-{2-[(4aR,5R)-4a-Cyclopropyl-5-hydroxy-1-phenyl-1,4,4a,5,6,7-hexahydrocyclopenta[f]indazol-5-yl]ethyl}benzonitrile] |
| 122 | 88 |  | N#Cc1c(F)cccc1CC[C@]1(O)CCC2=Cc3c(cnn3-c3ccccc3)C[C@@]21C1CC1 [Example 28, 2-{2-[(4aR,5R)-4a-Cyclopropyl-5-hydroxy-1-phenyl-1,4,4a,5,6,7-hexahydrocyclopenta[f]indazol-5-yl]ethyl}-6-fluorobenzonitrile] |
| 47 | 69 |  | NC(=O)c1ccccc1CC[C@]1(O)CCC2=Cc3c(cnn3-c3ccccc3)C[C@@]21C1CC1 [Example 29, 2-{2-[(4aR,5R)-4a-Cyclopropyl-5-hydroxy-1-phenyl-1,4,4a,5,6,7-hexahydrocyclopenta[f]indazol-5-yl]ethyl}benzamide] |
| 178 | 63 |  | N#Cc1ccccc1CC[C@]1(O)CCC2=Cc3c(cnn3-c3cccnc3)C[C@@]21C1CC1 [Example 30, 2-{2-[(4aR,5R)-4a-Cyclopropyl-5-hydroxy-1-(pyridin-3-yl)-1,4,4a,5,6,7-hexahydrocyclopenta[f]indazol-5-yl]ethyl}benzonitrile] |
| 13 | 89 |  | N#Cc1cccnc1CC[C@]1(O)CCC2=Cc3c(cnn3-c3ccc(F)cc3)C[C@@]21C1CC1 [Example 31, 2-{2-[(4aR,5R)-4a-Cyclopropyl-1-(4-fluorophenyl)-5-hydroxy-1,4,4a,5,6,7-hexahydrocyclopenta[f]indazol-5-yl]ethyl}pyridine-3-carbonitrile] |
| 266 | 83 |  | O[C@@]1(CCc2cc(C(F)(F)F)ccn2)CCC2=Cc3c(cnn3-c3ccc(F)cc3)C[C@@]21C1CC1 [Example 32, (4aR,5R)-4a-Cyclopropyl-1-(4-fluorophenyl)-5-{2-[4-(trifluoromethyl)pyridin-2-yl]ethyl}-1,4,4a,5,6,7-hexahydrocyclopenta[f]indazol-5-ol] |
| 84 | 82 |  | CC[C@]12Cc3cnn(-c4ccc(F)cc4)c3C=C1CC[C@@]2(O)CCc1cc(C)ccn1 [Example 33, (4aS,5R)-4a-Ethyl-1-(4-fluorophenyl)-5-[2-(4-methylpyridin-2-yl)ethyl]-1,4,4a,5,6,7-hexahydrocyclopenta[f]indazol-5-ol] |
| 125 | 85 |  | CC[C@]12Cc3cnn(-c4ccc(F)cc4)c3C=C1CC[C@@]2(O)CCc1cc(C(F)(F)F)ccn1 [Example 34, (4aS,5R)-4a-Ethyl-1-(4-fluorophenyl)-5-{2-[4-(trifluoromethyl)pyridin-2-yl]ethyl}-1,4,4a,5,6,7-hexahydrocyclopenta[f]indazol-5-ol] |
| 73 | 87 |  | N#Cc1ccnc(CC[C@]2(O)CCC3=Cc4c(cnn4-c4ccc(F)cc4)C[C@@]32C2CC2)c1 [Example 35, 2-{2-[(4aR,5R)-4a-Cyclopropyl-1-(4-fluorophenyl)-5-hydroxy-1,4,4a,5,6,7-hexahydrocyclopenta[f]indazol-5-yl]ethyl}pyridine-4-carbonitrile] |
| 114 | 72 |  | Cc1ccnc(CC[C@]2(O)CCC3=Cc4c(cnn4-c4ccc(F)cc4)C[C@@]32C2CC2)c1 [Example 36, (4aR,5R)-4a-Cyclopropyl-1-(4-fluorophenyl)-5-[2-(4-methylpyridin-2-yl)ethyl]-1,4,4a,5,6,7-hexahydrocyclopenta[f]indazol-5-ol] |
| 8 | 90 |  | CC[C@]12Cc3cnn(-c4ccc(F)cc4)c3C=C1CC[C@@]2(O)CCc1cccc(OC)c1C(N)=O [Example 37, 2-{2-[(4aS,5R)-4a-Ethyl-1-(4-fluorophenyl)-5-hydroxy-1,4,4a,5,6,7-hexahydrocyclopenta[f]indazol-5-yl]ethyl}-6-methoxybenzamide] |
| 11 | 74 |  | COc1cccc(CC[C@]2(O)CCC3=Cc4c(cnn4-c4ccc(F)cc4)C[C@@]32C2CC2)c1C(N)=O [Example 38, 2-{2-[(4aR,5R)-4a-Cyclopropyl-1-(4-fluorophenyl)-5-hydroxy-1,4,4a,5,6,7-hexahydrocyclopenta[f]indazol-5-yl]ethyl}-6-methoxybenzamide] |
| 83 | 71 |  | NC(=O)c1cc(F)ccc1CC[C@]1(O)CCC2=Cc3c(cnn3-c3ccc(F)cc3)C[C@@]21C1CC1 [Example 39, 2-{2-[(4aR,5R)-4a-Cyclopropyl-1-(4-fluorophenyl)-5-hydroxy-1,4,4a,5,6,7-hexahydrocyclopenta[f]indazol-5-yl]ethyl}-5-fluorobenzamide] |
| 38 | 83 |  | CC[C@]12Cc3cnn(-c4ccc(F)cc4)c3C=C1CC[C@@]2(O)CCc1ccccc1S(=O)(=O)C(C)C [Example 40, (4aS,5R)-4a-Ethyl-1-(4-fluorophenyl)-5-{2-[2-(propan-2-ylsulfonyl)phenyl]ethyl}-1,4,4a,5,6,7-hexahydrocyclopenta[f]indazol-5-ol] |
